# Assay results taken from ChEMBL document CHEMBL3045851, “Design, synthesis, and in vitro antimicrobial activities of novel azetidinyl-3-quinazolin-4-one hybrids” (2012).
# Experiments:
# Type in all cases: functional
# Aspergillus niger = experiment: Antifungal activity against Aspergillus niger MTCC 282 by broth microdilution method
# Candida albicans = experiment: Antifungal activity against Candida albicans MTCC 227 by broth microdilution method
# Aspergillus clavatus = experiment: Antifungal activity against Aspergillus clavatus MTCC 1323 by broth microdilution method
# [1] = test system: Mycobacterium tuberculosis; experiment: Growth inhibition of Mycobacterium tuberculosis H37Rv MTCC 200 at 40 ug/ml after 28 days by Lowenstein-Jensen method
# [2] = test system: Mycobacterium tuberculosis; experiment: Growth inhibition of Mycobacterium tuberculosis H37Rv MTCC 200 at 0.2 ug/ml after 28 days by Lowenstein-Jensen method; settings: H37Rv MTCC 200, 672 h, read-out: GI
# Streptococcus pyogenes = experiment: Antibacterial activity against Streptococcus pyogenes MTCC 442 after overnight incubation by broth dilution method
# Bacillus subtilis = experiment: Antibacterial activity against Bacillus subtilis MTCC 441 after overnight incubation by broth dilution method
# Escherichia coli = experiment: Antibacterial activity against Escherichia coli MTCC 443 after overnight incubation by broth dilution method
# Klebsiella pneumoniae = experiment: Antibacterial activity against Klebsiella pneumoniae MTCC 109 after overnight incubation by broth dilution method
# [3] = test system: Mycobacterium tuberculosis; experiment: Growth inhibition of Mycobacterium tuberculosis H37Rv MTCC 200 at 500 ug/ml after 28 days by Lowenstein-Jensen method; settings: H37Rv MTCC 200, 672 h, read-out: GI
# Pseudomonas aeruginosa = experiment: Antibacterial activity against Pseudomonas aeruginosa MTCC 1688 after overnight incubation by broth dilution method
# Salmonella typhimurium = experiment: Antibacterial activity against Salmonella enterica subsp. enterica serovar Typhimurium MTCC 98 after overnight incubation by broth dilution method
# Staphylococcus aureus = experiment: Antibacterial activity against Staphylococcus aureus MTCC 96 after overnight incubation by broth dilution method
# [4] = test system: Mycobacterium tuberculosis; experiment: Growth inhibition of Mycobacterium tuberculosis H37Rv MTCC 200 at 50 ug/ml after 28 days by Lowenstein-Jensen method; settings: H37Rv MTCC 200, 672 h, read-out: GI
# [5] = test system: Mycobacterium tuberculosis; experiment: Growth inhibition of Mycobacterium tuberculosis H37Rv MTCC 200 at 100 ug/ml after 28 days by Lowenstein-Jensen method; settings: H37Rv MTCC 200, 672 h, read-out: GI
# [6] = test system: Mycobacterium tuberculosis; experiment: Growth inhibition of Mycobacterium tuberculosis H37Rv MTCC 200 at 270 ug/ml after 28 days by Lowenstein-Jensen method; settings: H37Rv MTCC 200, 672 h, read-out: GI
# [7] = test system: Mycobacterium tuberculosis; experiment: Growth inhibition of Mycobacterium tuberculosis H37Rv MTCC 200 at 62.5 ug/ml after 28 days by Lowenstein-Jensen method; settings: H37Rv MTCC 200, 672 h, read-out: GI
# [8] = test system: Mycobacterium tuberculosis; experiment: Growth inhibition of Mycobacterium tuberculosis H37Rv MTCC 200 at 250 ug/ml after 28 days by Lowenstein-Jensen method; settings: H37Rv MTCC 200, 672 h, read-out: GI
# [9] = test system: Mycobacterium tuberculosis; experiment: Growth inhibition of Mycobacterium tuberculosis H37Rv MTCC 200 at 259 ug/ml after 28 days by Lowenstein-Jensen method; settings: H37Rv MTCC 200, 672 h, read-out: GI
Molecule,MIC99 (Aspergillus niger) [µg/mL],MIC99 (Candida albicans) [µg/mL],MIC99 (Aspergillus clavatus) [µg/mL],"inhibition of growth at 40 µg/mL ([1]; H37Rv MTCC 200, 672 h, read-out: GI) [%]",inhibition of growth at 0.2 µg/mL [2] [%],MIC99 (Streptococcus pyogenes) [µg/mL],MIC99 (Bacillus subtilis) [µg/mL],MIC99 (Escherichia coli) [µg/mL],MIC99 (Klebsiella pneumoniae) [µg/mL],inhibition of growth at 500 µg/mL [3] [%],MIC99 (Pseudomonas aeruginosa) [µg/mL],MIC99 (Salmonella typhimurium) [µg/mL],MIC99 (Staphylococcus aureus) [µg/mL],inhibition of growth at 50 µg/mL [4] [%],inhibition of growth at 100 µg/mL [5] [%],inhibition of growth at 270 µg/mL [6] [%],inhibition of growth at 62.5 µg/mL [7] [%],inhibition of growth at 250 µg/mL [8] [%],inhibition of growth at 259 µg/mL [9] [%],growth inhibition (GI) [1] [%]
NYSTATIN,100,100,100,,,,,,,,,,,,,,,,,
CO[C@H]1/C=C/O[C@@]2(C)Oc3c(C)c(O)c4c(O)c(c(/C=N/N5CCN(C)CC5)c(O)c4c3C2=O)NC(=O)/C(C)=C\C=C\[C@H](C)[C@H](O)[C@@H](C)[C@@H](O)[C@@H](C)[C@H](OC(C)=O)[C@@H]1C [RIFAMPIN],,,,98,,,,,,,,,,,,,,,,
NNC(=O)c1ccncc1 [ISONIAZID],,,,,99,,,,,,,,,,,,,,,
COC1=CC(=O)C[C@@H](C)[C@]12Oc1c(Cl)c(OC)cc(OC)c1C2=O [GRISEOFULVIN],100,500,100,,,,,,,,,,,,,,,,,
CCc1ccc(C2C(Cl)C(=O)N2NCc2nc3ccccc3c(=O)n2NC(=O)c2ccncc2)cc1 (stereo unspecified),> 1000,1000,> 1000,,,250,100,200,250,97,500,125,200,,,,,,,
O=C(N[C@H](CO)[C@H](O)c1ccc([N+](=O)[O-])cc1)C(Cl)Cl [CHLORAMPHENICOL],,,,,,50,,50,50,,50,50,50,,,,,,,
O=C(Nn1c(CNN2C(=O)C(Cl)C2c2ccccc2)nc2ccccc2c1=O)c1ccncc1 (stereo unspecified),500,1000,500,,,250,100,200,200,98,125,200,250,,,,,,,
O=C(Nn1c(CNN2C(=O)C(Cl)C2c2ccc([N+](=O)[O-])cc2)nc2ccccc2c1=O)c1ccncc1 (stereo unspecified),> 1000,500,> 1000,,,125,100,150,200,,150,200,100,99,,,,,,
O=C(O)c1cn(C2CC2)c2cc(N3CCNCC3)c(F)cc2c1=O [CIPROFLOXACIN],,,,,,50,,25,25,,25,25,50,,,,,,,
O=C(Nn1c(CNN2C(=O)C(Cl)C2c2ccccc2Cl)nc2ccccc2c1=O)c1ccncc1 (stereo unspecified),200,200,250,,,500,500,250,100,98,250,500,500,,,,,,,
O=C(Nn1c(CNN2C(=O)C(Cl)C2c2ccccc2[N+](=O)[O-])nc2ccccc2c1=O)c1ccncc1 (stereo unspecified),500,1000,500,,,250,250,100,250,,200,250,200,,99,,,,,
O=C(Nn1c(CNN2C(=O)C(Cl)C2c2cccc([N+](=O)[O-])c2)nc2ccccc2c1=O)c1ccncc1 (stereo unspecified),> 1000,1000,> 1000,,,500,200,250,500,,250,250,500,,,97,,,,
O=C(Nn1c(CNN2C(=O)C(Cl)C2c2ccc(Cl)cc2)nc2ccccc2c1=O)c1ccncc1 (stereo unspecified),1000,250,1000,,,500,250,50,100,,100,100,500,,,,99,,,
O=C(Nn1c(CNN2C(=O)C(Cl)C2c2ccccc2O)nc2ccccc2c1=O)c1ccncc1 (stereo unspecified),1000,250,1000,,,250,250,100,250,,125,125,250,,,,,97,,
CC1(C)S[C@@H]2[C@H](NC(=O)[C@H](N)c3ccccc3)C(=O)N2[C@H]1C(=O)O [AMPICILLIN],,,,,99,100,,100,100,,100,100,250,,,,,,,
O=C(Nn1c(CNN2C(=O)C(Cl)C2c2ccc(Br)cc2)nc2ccccc2c1=O)c1ccncc1 (stereo unspecified),1000,500,500,,,200,200,62.5,500,,200,100,200,,97,,,,,
CCn1cc(C(=O)O)c(=O)c2cc(F)c(N3CCNCC3)cc21 [NORFLOXACIN],,,,,,10,,10,10,,10,10,10,,,,,,,
COc1ccc(C2C(Cl)C(=O)N2NCc2nc3ccccc3c(=O)n2NC(=O)c2ccncc2)cc1 (stereo unspecified),250,200,200,,,200,250,500,62.5,,500,500,125,,,,,,98,
O=C(Nn1c(CNN2C(=O)C(Cl)C2c2ccc(O)cc2)nc2ccccc2c1=O)c1ccncc1 (stereo unspecified),> 1000,500,> 1000,,,250,250,250,250,,250,250,200,,,,,97,,
GENTAMICIN,,,,,,0.5,,0.05,0.05,,1,1,0.25,,,,,,,98
